Read-outs that look alike come from different tables or passages of the source.
How the values were obtained:
MCMV = assay: Antiviral activity against murine CMV in vitro; conditions: in Mus musculus; for EC50: read-out: EC50 MCMV; for EC90: read-out: EC90 MCMV
HSV-1 = assay type: cell-based; conditions: Human alphaherpesvirus 1, MRC5, DNA reduction assay in MRC-5 cells
HCMV = assay: Antiviral activity against human CMV in vitro; conditions: for EC50: Human betaherpesvirus 5, read-out: EC50 HCMV; for EC90: Human betaherpesvirus 5, read-out: EC90 HCMV
Wild Type HBV = assay: HBV replicative intermediates in vitro, wild type HBV; conditions: Hepatitis B virus, read-out: EC50 for intracellular HBV replicative intermediates (HBV R.I.), Wild Type
EBV = EBV Elisa assay in Daudi cells; assay type: cell-based; conditions: human gammaherpesvirus 4, Daudi, read-out: EBV EC50
HIV-tLal = assay type: cell-based; conditions: Human immunodeficiency virus 1, MT2, read-out: HIV-1 EC50
VZV = VZV CPE assay in HFF cells; assay type: cell-based; conditions: Human alphaherpesvirus 3
in vitro [1] = assay: in vitro
in vitro [2] = assay: in vitro; remark: listed apart in the source
[3] = Hepatitis B virus, read-out: HBV EC50, DNA reduction assay in 2.2.15 cells
[4] = read-out: HBV EC50, DNA reduction assay in 2.2.15 cells

| Compound | EC50 (HSV-1) [µM] | EC50 (HBV; [3]) [µM] | EC50 (HIV-tLal) [µM] | EC50 (VZV) [µM] | also measured |
| --- | --- | --- | --- | --- | --- |
| CCCCCCCCCCCCCCCCCCOCCOP(=O)(O)CC/C=C\Cn1cnc2c(=O)[nH]c(N)nc21 [ODE-PPen-G, (Z)-2-(octadecyloxy)ethyl hydrogen 5-(2-amino-6-oxo-1,6-dihydropurin-9-yl)pent-3-enylphosphonate] | 4.6 |  |  |  | EC50 (MCMV): 0.004 µM; EC90 (MCMV): 0.03 µM; EC50 (HCMV): 0.17 µM; EC90 (HCMV): 0.81 µM |
| CCCCCCCCCCCCCCCCOCCCOP(=O)(O)CC/C=C\Cn1cnc2c(N)ncnc21 [HDP-PPen-A] | 17.7 | 1.1 | > 10 | > 60 | EC50 (Wild Type HBV): 9.2 µM; EC50 (EBV): 0.1 µM; EC50 (HBV; [4]): 2 µM |
| Nc1ncnc2c1ncn2CC=CCCP(=O)(O)O [PPen-A, 9-(5-Phosphono-pent-2-en-1-yl)-adenine] | > 30 | > 30 | > 100 | > 300 | EC50 (EBV): > 4 µM |
| CCCCCCCC/C=C\CCCCCCCCOCCOP(=O)(O)CC/C=C\Cn1cnc2c(=O)[nH]c(N)nc21 [OLE-PPen-G, (Z)-2-(octadec-9-enyloxy)ethyl hydrogen 5-(2-amino-6-oxo-1,6-dihydropurin-9-yl)pent-3-enylphosphonate] | 0.68 |  |  |  | EC50 (MCMV): 0.028 µM; EC90 (MCMV): 0.12 µM; CC50 (in vitro [1]): > 1 µM; CC50 (in vitro [2]): > 1 µM; EC50 (HCMV): 0.47 µM; EC90 (HCMV): 0.89 µM |
| CCCCCCCCCCCCCCCCOCCCOP(=O)(O)CC/C=C\Cn1ccc(=O)[nH]c1=O [HDP-PPen-U, (3Z)-3-(hexadecyloxy)propyl hydrogen 5-(3,4-dihydro-2,4-dioxopyrimidin-1(2H)-yl)pent-3-enylphosphonate] | > 30 | > 30 | > 10 |  |  |
| Nc1nc2c(ncn2CC=CCCP(=O)(O)O)c(=O)[nH]1 [PPen-G, 9-(5-Phosphono-pent-2-en-1-yl)-guanine] | > 30 | > 30 | > 100 | 7.2 |  |
| Cc1cn(CC=CCCP(=O)(O)O)c(=O)[nH]c1=O [PPen-T, 1-(5-Phosphono-pent-2-en-1-yl)-thymine] | > 30 | > 30 | > 100 | > 300 |  |
| O=c1ccn(CC=CCCP(=O)(O)O)c(=O)[nH]1 [PPen-U, 1-(5-Phosphono-pent-2-en-1-yl)-uracil] | > 30 | > 30 | > 100 | > 300 |  |
| CCCCCCCCCCCCCCCCOCCCOP(=O)(O)CC/C=C\Cn1cnc2c(=O)[nH]c(N)nc21 [HDP-PPen-G, (Z)-3-(hexadecyloxy)propyl hydrogen 5-(2-amino-6-oxo-1,6-dihydropurin-9-yl)pent-3-enylphosphonate] |  | 2.4 | > 10 | 0.15 | EC50 (Wild Type HBV): 8.8 µM; EC50 (EBV): 48 µM; EC50 (HBV; [4]): 2.5 µM |
| CCCCCCCCCCCCCCCCOCCCOP(=O)(O)CC/C=C\Cn1ccc(N)nc1=O [HDP-PPen-C, (3Z)-3-(hexadecyloxy)propyl hydrogen 5-(4-amino-2-oxopyrimidin-1(2H)-yl)pent-3-enylphosphonate] | 4.7 |  | 2.5 |  |  |
| Nc1ccn(CC=CCCP(=O)(O)O)c(=O)n1 [PPen-C, 1-(5-Phosphono-pent-2-en-1-yl)cytosine] | > 30 | > 30 | > 100 | > 60 |  |
| CCCCCCCCCCCCCCCCOCCCOP(=O)(O)CC/C=C\Cn1cc(C)c(=O)[nH]c1=O [HDP-PPen-T] | 0.9 |  | 1 |  |  |

From patent US8222257B2, “Phosphono-pent-2-en-1-yl nucleosides and analogs” (The Regents of the University of California, priority 2005, dated 2012)
